Converted amounts (≈) assume the structure as drawn. Like-named read-outs stand apart in the source and are kept apart here. Square brackets hold non-standard residues; d marks the D form. Peptide text beside a SMILES is read from it. * marks the point of attachment. X2 = CC[C@H](C)CCCC[C@@H](O)CC(=O)*; d(aIle) = CC[C@H](C)[C@@H](N)C(=O)O; X1 = CC[C@H](C)CCCCC(=O)*; dDab = NCC[C@@H](N)C(=O)O; βNA = c1ccc2cc(N*)ccc2c1; Dab = NCC[C@H](N)C(=O)O
How the values were obtained:
A. baumannii ATCC 19606 [1] = experiment: microbe, parasite or virus in culture; settings: for Intrinsic Activity; MIC: ~4 × 10^5 CFU/ml, CA-MHB, 16 to 18 h, 37 °C
Method: (§1) Acinetobacter baumannii ATCC 19606, Pseudomonas aeruginosa ATCC 27853, K. pneumoniae ATCC 700603, K. pneumoniae P3R, K. pneumoniae GMCH 13 and K. pneumoniae GMCH 15 were grown in CA-MHB and adjusted to ~4 × 10^5 CFU/ml. 100 µl of fresh CA-MHB containing carbonyl cyanide m-chlorophenyl hydrazine (CCCP) or phenylalanine-arginine beta-naphthylamide (PAβN) (at a final concentration of their 1/4th of MIC or 1/8th of MIC) was added to the wells of a 96-well flat bottom plate. Tridecaptin M was diluted in a 2-fold manner. 100 µl of culture was added and the plates were incubated for 16 to 18 h at 37 °C and observed for MICs. The fold modulation in MICs of tridecaptin M was calculated by comparing the results in the presence or absence of CCCP and PAβN.

K. pneumoniae GMCH 13 = experiment: microbe, parasite or virus in culture; settings: for Intrinsic Activity; MIC: ~4 × 10^5 CFU/ml, CA-MHB, 16 to 18 h, 37 °C
Method: as §1

P. aeruginosa ATCC 27853 [2] = experiment: microbe, parasite or virus in culture
Method: as §1

[3] = test system: K. pneumoniae P3R (Tri-M Resistant); experiment: microbe, parasite or virus in culture
Method: as §1

K. pneumoniae GMCH 15 = experiment: microbe, parasite or virus in culture; settings: for Intrinsic Activity; MIC: ~4 × 10^5 CFU/ml, CA-MHB, 16 to 18 h, 37 °C
Method: as §1

[4] = test system: K. pneumoniae ATCC 700603; experiment: Synergy assay with efflux pump inhibitors; format: cell-based
Method: as §1

[5] = test system: K. pneumoniae ATCC 700603
Method: (§2) MICs for all the compounds were determined by broth microdilution assay, according to CLSI guidelines[16] as described previously. Haemolysis experiments were performed with fresh rabbit RBCs[11]. All the compounds were tested at a concentration of 128 µg/ml. To obtain rabbit blood, the experiments and the protocols were in accordance with the ethical standards of the Institutional Animal Ethics Committee (IAEC) of the Institute of Microbial Technology approved (Approval no. IAEC/17/11) by Committee for the Purpose of Control And Supervision of Experiments on Animals (CPCSEA, Government of India).

[6] = test system: Serratia marcescens MTCC 97
Method: as §2

E. coli CF-23 (mcr-1) = test system: E. coli CF-23 (mcr-1)
Method: as §2

[7] = test system: K. pneumoniae AH-3 (Col-R)
Method: as §2

[8] = test system: Proteus mirabilis MTCC 1429
Method: as §2

P. aeruginosa ATCC 27853 [9] = test system: P. aeruginosa ATCC 27853
Method: as §2

[10] = test system: K. pneumoniae AH-16 (Col-R)
Method: as §2

[11] = test system: outer membrane of A. baumannii ATCC 19606, P. aeruginosa ATCC 27853, K. pneumoniae ATCC 700603, P3R; experiment: Outer membrane permeabilization (NPN assay); format: cell-based; settings: peptide 4 µg/ml and 8 µg/ml; triplicate, three biological repeats
Method: For outer membrane permeabilization study, NPN dye was used as described previously. A. baumannii ATCC 19606, P. aeruginosa ATCC 27853, K. pneumoniae ATCC 700603 were treated with two different concentrations of the peptide (4 µg/ml and 8 µg/ml). To check alteration in the cytoplasmic membrane potential, DiSC3(5) probe was used[11].

[12] = Order of elution in RP-HPLC (hydrophobicity); format: physicochemical; settings: C18, acetonitrile/water with 0.075% TFA, in words
Method: The strain M-152 was inoculated in 700 ml MHB in 2 L Erlenmeyer flask, and the crude fermentation extract preparation, ion-exchange chromatography and the first step of RP-HPLC were performed as described for tridecaptin M[11]. The peaks obtained in HPLC were assayed against K. pneumoniae using agar well diffusion method. The active peaks (Fig. 1) were purified by the second round of HPLC under different conditions, optimized for each compound. The mobile phase system for all the peaks consisted of solvent A as 20% acetonitrile in Milli-Q and solvent B as 100% acetonitrile. Both solvents contained 0.075% TFA. C18 column (Waters, XBridge, 10 mm × 250 mm, 5 µm, 130 Å) was used to purify the compounds. Following gradient was used for the resolution of different components; for P1, 8% B to 26% B in 30 min, for P3, 8% B to 25% B in 23 min, for P4, 8% B to 23% B in 22 min, for P5, 3% B to 21.5% B in 24 min, for P6, 10% B to 25% B in 25 min, for P7, 8% B to 28% B in 25 min, for P8, 8% B to 26% B in 23 min, for P10, 10% B to 28% B in 30 min, for P11, 10% B to 28% B in 31 min. In two to three min, the gradient was reversed to initial column conditions and was equilibrated for five to six min, before the next injection. Multiple injections were given to generate a sufficient quantity of each compound for further studies.

A. baumannii ATCC 19606 [13] = test system: A. baumannii ATCC 19606
Method: as §2

K. pneumoniae P3R (M1-R) = settings: broth microdilution, CLSI guidelines; M1-resistant mutant of ATCC 700603
Method: as §2

[14] = test system: efflux in A. baumannii ATCC 19606; settings: CCCP 4 mg/L, Nile Red 5 μM, energization with 50 mM glucose, fluorescence 552/636 nm
Method: To assess the effect of CCCP on efflux in A. baumannii ATCC 19606, the Nile Red efflux assay was used[17]. The overnight grown culture was centrifuged at 3000 g for 10 min at room temperature. The pellet was resuspended in 20 mM potassium phosphate buffer (pH 7.0) containing 1 mM MgCl2 and washed twice with the same buffer. The cells were adjusted to an OD660 of 1.0 and the aliquots were transferred to a glass tubes containing CCCP at a final concentration of 4 mg/L. After 15 min, Nile Red was added to a final concentration of 5 μM, and the cell suspension was incubated in a shaker (140 rpm, 37 °C) for 3 h. The cells were kept at room temperature for 60 min and centrifuged for 5 min at 3000 g. The supernatant was discarded and the cell pellet was resuspended in assay buffer. Next, Nile Red efflux was immediately triggered by rapid energization with 50 mM glucose and the fluorescence was recorded at excitation and emission wavelength 552 nm and 636 nm, respectively, over a period of 5 min.

[15] = broth microdilution, CLSI guidelines
[16] = ~4 × 10^5 CFU/ml, CA-MHB, 16 to 18 h, 37 °C

Compound	Peptide MIC [5]	Peptide MIC [6]	Peptide MIC (E. coli CF-23 (mcr-1))	Peptide MIC [7]	Peptide MIC [8]	Peptide MIC (P. aeruginosa ATCC 27853 [9]; ATCC 27853)	Peptide MIC [10]	Peptide MIC (K. pneumoniae P3R (M1-R))	Peptide MIC (A. baumannii ATCC 19606 [13]; ATCC 19606)	other results
NC(N)=NCCC[C@H](NC(=O)[C@@H](N)Cc1ccccc1)C(=O)Nc1ccc2ccccc2c1 [PAβN, phenylalanine-arginine beta-naphthylamide, reference compound] (H-Phe-Arg-βNA)	–	–	–	–	–	–	–	–	–	MIC (A. baumannii ATCC 19606 [1]; Acinetobacter baumannii, ATCC19606, read-out: Intrinsic Activity, MIC): 64 µg/mL (≈ 143 µM); MIC (K. pneumoniae GMCH 13; Klebsiella pneumoniae, GMCH13, read-out: Intrinsic Activity, MIC): 256 µg/mL (≈ 573 µM); MIC (P. aeruginosa ATCC 27853 [2]; Pseudomonas aeruginosa, ATCC27853, read-out: Intrinsic Activity, MIC): 64 µg/mL (≈ 143 µM); MIC ([3]; Klebsiella pneumoniae, read-out: Intrinsic Activity, MIC): 256 µg/mL (≈ 573 µM); MIC (K. pneumoniae GMCH 15; Klebsiella pneumoniae, GMCH15, read-out: Intrinsic Activity, MIC): 256 µg/mL (≈ 573 µM); MIC ([4]; Klebsiella pneumoniae, ATCC700603, read-out: Intrinsic Activity, MIC): 256 µg/mL
CC[C@H](C)CCCC[C@@H](O)CC(=O)N[C@@H](C(=O)N[C@H](CCN)C(=O)NCC(=O)N[C@H](CO)C(=O)N[C@H](Cc1ccccc1)C(=O)N[C@@H](CO)C(=O)N[C@@H](CCN)C(=O)N[C@H](CCN)C(=O)N[C@@H](Cc1ccccc1)C(=O)N[C@@H](CCC(=O)O)C(=O)N[C@H](C(=O)N[C@@H](C(=O)N[C@@H](CO)C(=O)O)[C@@H](C)CC)[C@@H](C)CC)C(C)C [M11] (X2-[dV][dDab]G[dS][dF]S[Dab][dDab]FEI[d(aIle)]S-OH; N-terminus and C-terminus assumed)	2 µg/mL	4 µg/mL	1 µg/mL	1 µg/mL	4 µg/mL	8 µg/mL	1 µg/mL	–	–	fold modulation (reduction) of MIC in the presence of CCCP (A. baumannii ATCC 19606 [1]; MIC with versus without CCCP): four; Intrinsic Activity; MIC (A. baumannii ATCC 19606 [1]): 4 µg/mL; MIC of peptide in the presence of CCCP (K. pneumoniae GMCH 13; GMCH 13): 2 µg/mL; Intrinsic Activity; MIC (K. pneumoniae GMCH 13): 4 µg/mL; MIC of peptide in the presence of CCCP (K. pneumoniae GMCH 15; CCCP at 1/4th MIC): 2 µg/mL; MIC of peptide in the presence of CCCP (K. pneumoniae GMCH 15; CCCP at 1/8th MIC): 2 µg/mL; Intrinsic Activity; MIC (K. pneumoniae GMCH 15): 2 µg/mL; NPN uptake [11]: greater uptake of NPN, compared to M1; hydrophobicity by order of elution in HPLC [12]: greater hydrophobicity
CC[C@H](C)CCCCC(=O)NCC(=O)N[C@H](CCN)C(=O)NCC(=O)N[C@H](CO)C(=O)N[C@H](Cc1ccccc1)C(=O)N[C@@H](CO)C(=O)N[C@@H](CCN)C(=O)N[C@H](CCN)C(=O)N[C@H](C(=O)N[C@@H](CCC(=O)O)C(=O)N[C@H](C(=O)N[C@@H](C(=O)N[C@@H](CO)C(=O)O)[C@@H](C)CC)[C@@H](C)CC)[C@@H](C)CC [M8] (X1-G[dDab]G[dS][dF]S[Dab][dDab]IEI[d(aIle)]S-OH)	4 µg/mL	16 µg/mL	4 µg/mL	8 µg/mL	>16 µg/mL	–	4 µg/mL	128 µg/mL	–	Peptide MIC (A. baumannii ATCC 19606 [13]; [15]): 128 µg/mL; Peptide MIC (P. aeruginosa ATCC 27853 [9]; [15]): >128 µg/mL
CC[C@H](C)CCCCC(=O)NCC(=O)N[C@H](CCN)C(=O)NCC(=O)N[C@H](CO)C(=O)N[C@H](Cc1c[nH]c2ccccc12)C(=O)N[C@@H](CO)C(=O)N[C@@H](CCN)C(=O)N[C@H](CCN)C(=O)N[C@H](C(=O)N[C@@H](CCC(=O)O)C(=O)N[C@H](C(=O)N[C@@H](C(=O)N[C@@H](CO)C(=O)O)[C@@H](C)CC)[C@@H](C)CC)C(C)C [M7] (X1-G[dDab]G[dS][dW]S[Dab][dDab]VEI[d(aIle)]S-OH)	8 µg/mL	8 µg/mL	16 µg/mL	8 µg/mL	>16 µg/mL	>32 µg/mL	8 µg/mL	16 µg/mL	>32 µg/mL	–
CC[C@H](C)CCCCC(=O)NCC(=O)N[C@H](CCN)C(=O)NCC(=O)N[C@H](CO)C(=O)N[C@H](Cc1ccccc1)C(=O)N[C@@H](CO)C(=O)N[C@@H](CCN)C(=O)N[C@H](CCN)C(=O)N[C@H](C(=O)N[C@@H](CCC(=O)O)C(=O)N[C@H](C(=O)N[C@@H](C(=O)N[C@@H](CO)C(=O)O)C(C)C)[C@@H](C)CC)[C@@H](C)CC [M5] (X1-G[dDab]G[dS][dF]S[Dab][dDab]IEI[dV]S-OH)	16 µg/mL	8 µg/mL	16 µg/mL	16 µg/mL	16 µg/mL	>32 µg/mL	16 µg/mL	16 µg/mL	>32 µg/mL	–
carbonyl cyanide m-chlorophenyl hydrazine [CCCP, reference compound]	–	–	–	–	–	–	–	–	–	Intrinsic Activity; MIC (A. baumannii ATCC 19606 [1]): 64 µg/mL; Intrinsic Activity; MIC (K. pneumoniae GMCH 13): 32 µg/mL; Intrinsic Activity; MIC (P. aeruginosa ATCC 27853 [2]; [16]): 64 µg/mL; Intrinsic Activity; MIC [3, 16]: 128 µg/mL; Intrinsic Activity; MIC (K. pneumoniae GMCH 15): 64 µg/mL; effect on efflux of Nile red dye [14]: inhibited the efflux of Nile red dye; Intrinsic Activity; MIC [4, 16]: 128 µg/mL
CC[C@H](C)CCCCC(=O)NCC(=O)N[C@H](CCN)C(=O)NCC(=O)N[C@H](CO)C(=O)N[C@H](Cc1c[nH]c2ccccc12)C(=O)N[C@@H](CO)C(=O)N[C@@H](CCN)C(=O)N[C@H](CCN)C(=O)N[C@H](C(=O)N[C@@H](CCC(=O)O)C(=O)N[C@H](C(=O)N[C@@H](C(=O)N[C@@H](CO)C(=O)O)C(C)C)[C@@H](C)CC)[C@@H](C)CC [M6] (X1-G[dDab]G[dS][dW]S[Dab][dDab]IEI[dV]S-OH)	4 µg/mL	16 µg/mL	4 µg/mL	4 µg/mL	>16 µg/mL	>32 µg/mL	2 µg/mL	16 µg/mL	>32 µg/mL	–
CC[C@H](C)CCCCC(=O)NCC(=O)N[C@H](CCN)C(=O)NCC(=O)N[C@H](CO)C(=O)N[C@H](Cc1c[nH]c2ccccc12)C(=O)N[C@@H](CO)C(=O)N[C@@H](CCN)C(=O)N[C@H](CCN)C(=O)N[C@H](C(=O)N[C@@H](CCC(=O)O)C(=O)N[C@H](C(=O)N[C@@H](C(=O)N[C@@H](CO)C(=O)O)C(C)C)C(C)C)[C@@H](C)CC [M2] (X1-G[dDab]G[dS][dW]S[Dab][dDab]IEV[dV]S-OH)	8 µg/mL	>16 µg/mL	16 µg/mL	8 µg/mL	>16 µg/mL	>32 µg/mL	>16 µg/mL	>32 µg/mL	>32 µg/mL	–

From article PMC6906472, “Purification and biological activity of natural variants synthesized by tridecaptin M gene cluster and in vitro drug-kinetics of this antibiotic class” (Scientific Reports, 2019)
